According to patent US9085575B2, “Tri- and tetracyclic pyrazolo[3,4-B]pyridine compounds as antineoplastic agent” (PIERRE FABRE MEDICAMENT, priority 2011, dated 2015):

These compounds were tested against ALK (Homo sapiens, UniProt Q9UM73) (assay: Test for measurement of ALK inhibition (ELISA, GST-PLCγ1 substrate, luminescence)). Conditions: comparative tests; read-out: Alk enzymatic inhibition (IC50).
Type: biochemical
Protocol: Test for Measurement of ALK Inhibition
A ViewPlate microplate (Packard) is incubated with 0.1 mg/ml GST-PLCγ1 substrate (purified recombinant form) in phosphate buffer (PBS, pH 7.4) (100 μl/well) for one hour under stirring. The plate is then saturated with blocking solution comprising 5% bovine serum albumin (BSA) (Sigma) in PBS buffer, pH 7.4.
After having added the inhibitor at the desired final concentration (typical range between 30 μM and 10 nM), the reaction is carried out by adding 180 ng/ml ALK to a reaction buffer comprised of 13 mM Tris, pH 7.5 (Sigma); 6.5 mM MgCl2 (Merck); 0.65 mM dithiothreitol (DTT) (Acros); 39 mM sodium β-glycerophosphate (TCI); 0.65 mM sodium orthovanadate (Sigma); and 250 μM ATP (Sigma). Incubation is carried out for 30 minutes at 30° C. under stirring.
After three washings under stirring in 0.1% PBS/Tween-20 buffer (Sigma), an anti-phosphotyrosine antibody, coupled with HRP (UBI) diluted to 1/1000 in 5 mg/ml PBS/BSA buffer, is incubated for one hour with stirring. After three new washings in 0.1% PBS/Tween-20, the wells are incubated for two minutes with 100 μl of SuperSignal ELISA mixture (Pierce).
The signal is read in luminescence mode using a luminometer (SpectraMax M5e, Molecular Devices).

Sequence of ALK (Q9UM73 19-1620): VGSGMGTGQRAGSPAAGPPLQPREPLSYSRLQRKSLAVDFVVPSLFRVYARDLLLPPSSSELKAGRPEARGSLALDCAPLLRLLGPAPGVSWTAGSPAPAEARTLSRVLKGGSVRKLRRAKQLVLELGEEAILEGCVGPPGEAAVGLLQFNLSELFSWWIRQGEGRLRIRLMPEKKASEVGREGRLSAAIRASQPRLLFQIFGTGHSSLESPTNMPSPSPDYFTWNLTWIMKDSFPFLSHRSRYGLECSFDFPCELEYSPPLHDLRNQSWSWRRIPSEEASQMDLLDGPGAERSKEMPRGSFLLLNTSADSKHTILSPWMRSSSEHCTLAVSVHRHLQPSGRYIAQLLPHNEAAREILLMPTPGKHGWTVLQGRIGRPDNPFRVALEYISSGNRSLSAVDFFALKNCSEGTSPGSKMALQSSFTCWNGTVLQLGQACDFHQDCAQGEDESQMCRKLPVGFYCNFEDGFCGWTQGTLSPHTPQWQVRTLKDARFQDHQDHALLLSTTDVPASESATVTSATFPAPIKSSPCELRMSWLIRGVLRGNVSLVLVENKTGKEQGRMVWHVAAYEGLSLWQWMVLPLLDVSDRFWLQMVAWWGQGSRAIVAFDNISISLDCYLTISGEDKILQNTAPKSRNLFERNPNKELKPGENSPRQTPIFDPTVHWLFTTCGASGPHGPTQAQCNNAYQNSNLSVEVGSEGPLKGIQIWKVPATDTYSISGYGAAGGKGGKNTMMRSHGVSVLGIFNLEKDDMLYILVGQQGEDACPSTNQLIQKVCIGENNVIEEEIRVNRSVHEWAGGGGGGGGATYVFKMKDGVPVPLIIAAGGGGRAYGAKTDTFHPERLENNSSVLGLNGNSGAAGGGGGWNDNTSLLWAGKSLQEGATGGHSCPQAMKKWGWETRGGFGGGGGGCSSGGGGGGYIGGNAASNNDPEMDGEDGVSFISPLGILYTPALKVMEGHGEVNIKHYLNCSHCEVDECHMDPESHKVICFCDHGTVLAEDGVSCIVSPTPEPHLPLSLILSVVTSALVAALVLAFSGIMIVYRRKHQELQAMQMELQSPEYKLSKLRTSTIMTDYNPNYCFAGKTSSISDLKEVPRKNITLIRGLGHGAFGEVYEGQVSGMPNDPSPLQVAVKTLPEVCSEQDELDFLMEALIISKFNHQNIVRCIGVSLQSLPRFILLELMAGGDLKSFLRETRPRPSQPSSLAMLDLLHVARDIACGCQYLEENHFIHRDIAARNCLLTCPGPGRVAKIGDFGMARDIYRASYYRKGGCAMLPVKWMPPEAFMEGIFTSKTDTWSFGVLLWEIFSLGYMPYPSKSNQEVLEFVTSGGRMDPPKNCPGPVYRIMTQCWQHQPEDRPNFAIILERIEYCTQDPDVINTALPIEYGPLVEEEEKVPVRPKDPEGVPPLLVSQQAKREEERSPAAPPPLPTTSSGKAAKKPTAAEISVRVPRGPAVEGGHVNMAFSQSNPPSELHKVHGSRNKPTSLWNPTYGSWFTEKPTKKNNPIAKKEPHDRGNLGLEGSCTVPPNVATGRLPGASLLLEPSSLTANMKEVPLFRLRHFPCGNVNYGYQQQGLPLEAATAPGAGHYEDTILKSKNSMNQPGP

`Cc1n[nH]c2nc(-c3ccc(O)cc3)c3ccccc3c12` [Comparative compound 98, reference compound] was tested. Which IC50 did it give?
Its IC50 is 70 nM.

For `Cc1n[nH]c2nc(-c3ccc(O)cc3)c3c(=O)[nH]c4ccccc4c3c12` [Compound 02], which IC50 is on record?
Its IC50 is 2.5 nM.

Which IC50 does the source give for `Cc1n[nH]c2nc(-c3ccc(O)cc3)c3cnc4ccccc4c3c12` [Compound 06] here?
The IC50 was 35 nM.

Same assay, conditions: enzymatic IC50 on ALK, 250 μM ATP, class symbols; read-out: IC50 (ALK)

Which IC50 does the source give for `Cc1cc2c(o1)-c1c(c(-c3ccc(O)cc3)nc3[nH]nc(C)c13)C2=O` [Compound 01] here?
Its IC50 is < 100 nM.

For `Cc1n[nH]c2nc(-c3ccc(O)cc3)c3c(=O)[nH]c4ccccc4c3c12` [Compound 02], which IC50 is on record?
Its IC50 is < 100 nM.

How did the IC50 turn out when `O=C1c2cc(N3CCNCC3)ccc2-c2c1c(-c1c(F)ccc(F)c1F)nc1[nH]nc(-c3cccs3)c21` [Compound 03] was run?
Its IC50 is 1000 to 10000 nM.

Which IC50 does the source give for `Cc1n[nH]c2nc(-c3ccc(O)cc3)c3c(=O)[nH]c4cc(N5CCNCC5)ccc4c3c12` [Compound 04] here?
The IC50 was < 100 nM.

How did the IC50 turn out when `O=c1[nH]c2ccccc2c2c1c(-c1ccc(O)cc1)nc1[nH]nc(-c3ccc(N4CCNCC4)cc3)c12` [Compound 05] was run?
Its IC50 is < 100 nM.

`Cc1n[nH]c2nc(-c3ccc(O)cc3)c3c(=O)n(CCCN(C)C)c4ccccc4c3c12` [Compound 07] was tested. Which IC50 did it give?
Its IC50 is < 100 nM.

For `COc1ccc(-c2nc3[nH]nc(C)c3c3c2c(=O)oc2ccccc23)cc1` [Compound 08], which IC50 is on record?
The IC50 was 1000 to 10000 nM.

With `Cc1n[nH]c2nc(-c3ccc(O)cc3)c3c(=O)oc4ccccc4c3c12` [Compound 09] as the compound, how does the IC50 read?
The IC50 was 100 to 1000 nM.

With `Cc1n[nH]c2nc(-c3ccc(O)cc3)c3c(=O)n(CCCN4CCN(C)CC4)c4ccccc4c3c12` [Compound 10] as the compound, how does the IC50 read?
Its IC50 is < 100 nM.

For `Cc1n[nH]c2nc(-c3ccc(O)cc3)c3c(=O)[nH]c4cc(N5CC[C@@H](N)C5)ccc4c3c12` [Compound 11], which IC50 is on record?
The IC50 was < 100 nM.

Which IC50 does the source give for `Cc1n[nH]c2nc(-c3ccc(O)cc3)c3c(=O)n(CCCN(C)C)c4cc(N5CCNCC5)ccc4c3c12` [Compound 12] here?
Its IC50 is < 100 nM.

Which IC50 does the source give for `Cc1n[nH]c2nc(-c3ccc(O)cc3)c3c(=O)[nH]c4cc(OCCCN5CCNCC5)ccc4c3c12` [Compound 13] here?
Its IC50 is < 100 nM.

`Cc1n[nH]c2nc(-c3ccc(O)cc3)c3c(=O)n(CCCN4CC[C@@H](N)C4)c4ccccc4c3c12` [Compound 14] was tested. Which IC50 did it give?
Its IC50 is < 100 nM.

For `Cc1n[nH]c2nc(-c3ccc(O)cc3)c3c(=O)n(CCN4CCNCC4)c4ccccc4c3c12` [Compound 15], which IC50 is on record?
The IC50 was 100 to 1000 nM.

Which IC50 does the source give for `O=c1[nH]c2cc(N3CCNCC3)ccc2c2c1c(-c1ccc(O)cc1)nc1[nH]nc(-c3ccco3)c12` [Compound 16] here?
The IC50 was < 100 nM.

How did the IC50 turn out when `CC(=O)Oc1ccc(-c2nc3[nH]nc(C)c3c3c2c(=O)[nH]c2cc(N4CCNCC4)ccc23)cc1` [Compound 17] was run?
Its IC50 is < 100 nM.

Which IC50 does the source give for `Cc1n[nH]c2nc(-c3ccc(O)cc3)c3c(=O)[nH]c4cc(N5CCC(N)CC5)ccc4c3c12` [Compound 18] here?
The IC50 was < 100 nM.

For `CCOc1ccc(-c2nc3[nH]nc(C)c3c3c2c(=O)[nH]c2cc(N4CCNCC4)ccc23)cc1` [Compound 19], which IC50 is on record?
The IC50 was < 100 nM.

`CCn1c(=O)c2c(-c3ccc(O)cc3)nc3[nH]nc(C)c3c2c2ccc(N3CCNCC3)cc21` [Compound 20] was tested. Which IC50 did it give?
Its IC50 is < 100 nM.

For `Cc1n[nH]c2nc(-c3ccc(O)cc3)c3c(=O)[nH]c4cc(N5CCN(C6CCN(C)CC6)CC5)ccc4c3c12` [Compound 21], which IC50 is on record?
The IC50 was < 100 nM.

With `COc1ccc(-c2nc3[nH]nc(N)c3c3c2c(=O)[nH]c2ccc(N4CCNCC4)cc23)cc1` [Compound 22] as the compound, how does the IC50 read?
The IC50 was 1000 to 10000 nM.

Which IC50 does the source give for `CC(=O)Nc1n[nH]c2nc(-c3ccc(O)cc3)c3c(=O)[nH]c4ccccc4c3c12` [Compound 23] here?
Its IC50 is < 100 nM.

With `Nc1n[nH]c2nc(-c3ccc(O)cc3)c3c(=O)[nH]c4ccccc4c3c12` [Compound 24] as the compound, how does the IC50 read?
Its IC50 is < 100 nM.

How did the IC50 turn out when `Nc1n[nH]c2nc(-c3ccc(O)cc3)c3c(=O)[nH]c4ccc(N5CCNCC5)cc4c3c12` [Compound 25] was run?
The IC50 was < 100 nM.

`Cc1n[nH]c2nc(-c3ccc(O)c(C(=O)O)c3)c3c(=O)[nH]c4cc(N5CCNCC5)ccc4c3c12` [Compound 27] was tested. Which IC50 did it give?
The IC50 was 1000 to 10000 nM.

With `Cc1n[nH]c2nc(-c3ccc(O)cc3)c3c(=O)oc(-c4ccccc4)cc3c12` [Compound 28] as the compound, how does the IC50 read?
The IC50 was 100 to 1000 nM.

With `Cc1n[nH]c2nc(-c3cc(O)cc(F)c3)c3c(=O)[nH]c4cc(N5CCNCC5)ccc4c3c12` [Compound 30] as the compound, how does the IC50 read?
The IC50 was < 100 nM.

`Cc1n[nH]c2nc(-c3cc(F)cc(F)c3)c3c(=O)[nH]c4cc(N5CCNCC5)ccc4c3c12` [Compound 31] was tested. Which IC50 did it give?
The IC50 was 1000 to 10000 nM.

With `Nc1n[nH]c2nc(-c3ccc(O)cc3)c3c(=O)[nH]c4cc(N5CCNCC5)ccc4c3c12` [Compound 32] as the compound, how does the IC50 read?
The IC50 was < 100 nM.

For `CCOc1cc(F)cc(-c2nc3[nH]nc(C)c3c3c2c(=O)n(CC)c2cc(N4CCNCC4)ccc32)c1` [Compound 33], which IC50 is on record?
Its IC50 is < 100 nM.

How did the IC50 turn out when `Cc1n[nH]c2nc(-c3ccc(O)cc3)c3c(=O)[nH]ccc3c12` [Compound 35] was run?
Its IC50 is 1000 to 10000 nM.

With `Nc1n[nH]c2nc(-c3cc(F)cc(F)c3)c3c(=O)[nH]c4cc(N5CCNCC5)ccc4c3c12` [Compound 36] as the compound, how does the IC50 read?
The IC50 was 1000 to 10000 nM.

With `CCn1c(=O)c2c(-c3ccc(O)cc3)nc3[nH]nc(N)c3c2c2ccc(N3CCNCC3)cc21` [Compound 37] as the compound, how does the IC50 read?
Its IC50 is < 100 nM.

For `Nc1n[nH]c2nc(-c3ccc(O)cc3F)c3c(=O)[nH]c4ccccc4c3c12` [Compound 38], which IC50 is on record?
The IC50 was < 100 nM.

Which IC50 does the source give for `Nc1n[nH]c2nc(-c3ccc(O)cc3)c3c(=O)[nH]ccc3c12` [Compound 39] here?
The IC50 was 1000 to 10000 nM.

With `Cc1n[nH]c2nc(-c3ccc(O)c(C(F)(F)F)c3)c3c(=O)[nH]c4cc(N5CCNCC5)ccc4c3c12` [Compound 41] as the compound, how does the IC50 read?
The IC50 was 100 to 1000 nM.

`Nc1n[nH]c2nc(-c3ccc(O)cc3)c3c(=O)n(O)c4ccccc4c3c12` [Compound 42] was tested. Which IC50 did it give?
Its IC50 is < 100 nM.

`CCn1ccc2c(c(-c3ccc(O)cc3)nc3[nH]nc(C)c32)c1=O` [Compound 44] was tested. Which IC50 did it give?
Its IC50 is 1000 to 10000 nM.

Which IC50 does the source give for `Cn1ccc2c(c(-c3cc(F)cc(F)c3)nc3[nH]nc(N)c32)c1=O` [Compound 45] here?
The IC50 was 1000 to 10000 nM.

`CCn1c(=O)c2c(-c3ccc(O)c(C(F)(F)F)c3)nc3[nH]nc(C)c3c2c2ccc(N3CCNCC3)cc21` [Compound 46] was tested. Which IC50 did it give?
Its IC50 is < 100 nM.

With `CCOc1nc2cc(N3CCNCC3)ccc2c2c1c(-c1ccc(O)c(C(F)(F)F)c1)nc1[nH]nc(C)c12` [Compound 47] as the compound, how does the IC50 read?
The IC50 was 100 to 1000 nM.

`CCOC(=O)Oc1ccc(-c2nc3c(c(C)nn3C(=O)OCC)c3c2c(=O)[nH]c2cc(N4CCN(C(=O)OCC)CC4)ccc23)cc1` [Compound 48] was tested. Which IC50 did it give?
The IC50 was 1000 to 10000 nM.

For `CC(=O)Oc1ccc(-c2nc3c(c(C)nn3C(C)=O)c3c2c(=O)[nH]c2cc(N4CCNCC4)ccc23)cc1` [Compound 49], which IC50 is on record?
The IC50 was < 100 nM.

`Cc1nn(C(=O)OC(C)(C)C)c2nc(-c3ccc(OC(=O)C(C)(C)C)cc3)c3c(=O)[nH]c4cc(N5CCN(C(=O)OC(C)(C)C)CC5)ccc4c3c12` [Compound 50] was tested. Which IC50 did it give?
Its IC50 is 100 to 1000 nM.

With `COc1ccc(-c2nc3[nH]nc(N)c3c3c2c(=O)[nH]c2cc(N4CCNCC4)ccc23)cc1` [Compound 51] as the compound, how does the IC50 read?
The IC50 was < 100 nM.

`CN1CCN(c2ccc(C(=O)Nc3n[nH]c4nc(-c5ccc(O)cc5)c5c(=O)[nH]c6ccccc6c5c34)cc2)CC1` [Compound 52] was tested. Which IC50 did it give?
The IC50 was < 100 nM.

For `Cc1n[nH]c2nc(-c3ccc(O)cc3)c3c(c12)CCNC3=O` [Compound 53], which IC50 is on record?
The IC50 was < 100 nM.

With `CCn1cc(-c2ccc(N3CCNCC3)cc2)c2c(c(-c3ccc(O)cc3)nc3[nH]nc(N)c32)c1=O` [Compound 54] as the compound, how does the IC50 read?
Its IC50 is 1000 to 10000 nM.

With `CCn1c(=O)c2c(-c3cc(F)cc(F)c3)nc3[nH]nc(N)c3c2c2ccc(N3CCNCC3)cc21` [Compound 55] as the compound, how does the IC50 read?
Its IC50 is 100 to 1000 nM.

What follows are compounds tested on Karpas 299 cells (assay: Test for measurement of cell proliferation inhibition (Karpas 299), ATPlite). Conditions: Homo sapiens, Karpas 299 cell line, 72 hours.
Type: cell-based
Protocol: Test for Measurement of Cell Prolifearation Inhibition (Karpas 299)
The antiproliferative activity of the compounds according to the invention has been measured by the ATPlite technique (Perkin Ekmer).
Human cells of non-adherent anaplasic large cell lymphoma (Karpas 299) are seeded in 96-well plates (300,000 cells/ml) on day 1, at a concentration compatible with a logarithmic growth for 72 hours necessary for the evaluation of the compounds according to the invention. All the cells are treated on day 1 and then placed in an incubator at 37° C., under a 5% CO2 atmosphere. Cell viability is evaluated on day 4 by dosing the emitted ATP, which is a characteristic of viable cells. IC50s are determined by a non linear regression based on a sigmoidal model of dose/response relationship, the Hill coefficient being let variable, performed with the GraphPad software according to the algorithm provided.

Which IC50 does the source give for `Cc1n[nH]c2nc(-c3ccc(O)cc3)c3ccccc3c12` [Comparative compound 98, reference compound] here?
The IC50 was 4040 nM.

`Cc1n[nH]c2nc(-c3ccc(O)cc3)c3c(=O)[nH]c4ccccc4c3c12` [Compound 02] was tested. Which IC50 did it give?
The IC50 was 168 nM.

For `Cc1n[nH]c2nc(-c3ccc(O)cc3)c3cnc4ccccc4c3c12` [Compound 06], which IC50 is on record?
Its IC50 is 1000 nM.
